# According to US11802111B2, “Cyclobutyl amide monoacylglycerol lipase modulators” (Janssen Pharmaceutica NV, priority 2020, dated 2023):
# Biological target: human MGL from HeLa cells (Homo sapiens (Human), UniProt Q99685)
# Experiment: MGL in vitro activity assay ([glycerol-1,3-3H]-oleoyl glycerol hydrolysis, activated carbon filtration)
# Type: biochemical
# Conditions: 300 nM [Glycerol-1,3-3H]-oleoyl glycerol, one hour
# How it was run: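 Endogenous human MGL in HeLa cells/homogenates incubated 1 h with test compounds and 300 nM [glycerol-1,3-3H]-oleoyl glycerol. Released 3H-glycerol passing an activated carbon filter counted as activity; screening at 10 μM compound, top IC50 concentration set empirically.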
# Chain of human MGL from HeLa cells (Q99685 whole entry): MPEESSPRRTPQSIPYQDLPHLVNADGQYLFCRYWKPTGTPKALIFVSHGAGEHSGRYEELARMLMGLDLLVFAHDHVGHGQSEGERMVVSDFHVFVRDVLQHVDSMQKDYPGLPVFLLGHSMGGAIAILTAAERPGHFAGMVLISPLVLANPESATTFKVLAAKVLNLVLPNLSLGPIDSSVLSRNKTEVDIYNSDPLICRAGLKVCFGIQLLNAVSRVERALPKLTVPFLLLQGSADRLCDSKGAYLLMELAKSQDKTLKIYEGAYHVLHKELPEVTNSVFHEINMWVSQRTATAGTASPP
row,Structure (SMILES),IC50
1,"CC(C)n1ccc2ccc(C3CCC4(CC3)CN(C(=O)[C@H]3C[C@@](C)(O)C3)C4)nc21 [Example 385, ((1s,3s)-3-Hydroxy-3-methylcyclobutyl)(7-(1-isopropyl-1H-pyrrolo[2,3-b]pyridin-6-yl)-2-azaspiro[3.5]nonan-2-yl)methanone]",30 nM
2,"Cn1cc(C(F)(F)F)c2ccc(C3CCC4(CC3)CN(C(=O)[C@H]3C[C@@](C)(O)C3)C4)nc21 [Example 386, ((1s,3s)-3-Hydroxy-3-methylcyclobutyl)(7-(1-methyl-3-(trifluoromethyl)-1H-pyrrolo[2,3-b]pyridin-6-yl)-2-azaspiro[3.5]nonan-2-yl)methanone]",19 nM
3,"C[C@]1(O)C[C@@H](C(=O)N2CC3(CCC(c4ccc5ccn(CC(F)(F)F)c5n4)CC3)C2)C1 [Example 387, ((1s,3s)-3-Hydroxy-3-methylcyclobutyl)(7-(1-(2,2,2-trifluoroethyl)-1H-pyrrolo[2,3-b]pyridin-6-yl)-2-azaspiro[3.5]nonan-2-yl)methanone]",68 nM
4,"C[C@]1(O)C[C@@H](C(=O)N2CC3(CCC(c4cc5ccccn5n4)CC3)C2)C1 [Example 388, ((1s,3s)-3-Hydroxy-3-methylcyclobutyl)(7-(pyrazolo[1,5-c]pyridin-2-yl)-2-azaspiro[3.5]nonan-2-yl)methanone]",198 nM
5,"C[C@]1(O)C[C@@H](C(=O)N2CC3(CCC(c4cccc5ccnn45)CC3)C2)C1 [Example 389, ((1s,3s)-3-Hydroxy-3-methylcyclobutyl)(7-(pyrazolo[1,5-a]pyridin-7-yl)-2-azaspiro[3.5]nonan-2-yl)methanone]",101 nM
6,C[C@]1(O)C[C@@H](C(=O)N2CC3(CCC(c4cccc5nccn45)CC3)C2)C1 [Example 390],722 nM
7,C[C@]1(O)C[C@@H](C(=O)N2CC3(CCC(c4cn5ccccc5n4)CC3)C2)C1 [Example 391],1270 nM
8,"C[C@]1(O)C[C@@H](C(=O)N2CC3(CCC(c4cnc5ccccn45)CC3)C2)C1 [Example 392, ((1s,3s)-3-Hydroxy-3-methylcyclobutyl)(7-(imidazo[1,2-c]pyridin-3-yl)-2-azaspiro[3.5]nonan-2-yl)methanone]",790 nM
9,"C[C@]1(O)C[C@@H](C(=O)N2CC3(CCC(c4cnn5cccc5c4)CC3)C2)C1 [Example 393, ((1s,3s)-3-Hydroxy-3-methylcyclobutyl)(7-(pyrrolo[1,2-b]pyridazin-3-yl)-2-azaspiro[3.5]nonan-2-yl)methanone]",27 nM
10,"C[C@]1(O)C[C@@H](C(=O)N2CC3(CCC(c4cnn5ccccc45)CC3)C2)C1 [Example 394, ((1s,3s)-3-Hydroxy-3-methylcyclobutyl)(7-(pyrazolo[1,5-c]pyridin-3-yl)-2-azaspiro[3.5]nonan-2-yl)methanone]",226 nM
11,"C[C@]1(O)C[C@@H](C(=O)N2CC3(CCC(c4cc5n(n4)CCCC5)CC3)C2)C1 [Example 395, ((1s,3s)-3-Hydroxy-3-methylcyclobutyl)(7-(4,5,6,7-tetrahydropyrazolo[1,5-a]pyridin-2-yl)-2-azaspiro[3.5]nonan-2-yl)methanone]",354 nM
12,"C[C@]1(O)C[C@@H](C(=O)N2CC3(CCC(c4cn5c(n4)CCCC5)CC3)C2)C1 [Example 396, ((1s,3s)-3-Hydroxy-3-methylcyclobutyl)(7-(5,6,7,8-tetrahydroimidazo[1,2-a]pyridin-2-yl)-2-azaspiro[3.5]nonan-2-yl)methanone]",7240 nM
13,"Cc1ccc(CC2CCC3(CC2)CN(C(=O)[C@H]2C[C@@](C)(O)C2)C3)cc1 [Example 397, ((1s,3s)-3-Hydroxy-3-methylcyclobutyl)(7-(4-methylbenzyl)-2-azaspiro[3.5]nonan-2-yl)methanone]",16 nM
14,"Cc1cccc(CC2CCC3(CC2)CN(C(=O)[C@H]2C[C@@](C)(O)C2)C3)c1F [Example 398, (7-(2-Fluoro-3-methylbenzyl)-2-azaspiro[3.5]nonan-2-yl)((1s,3s)-3-hydroxy-3-methylcyclobutyl)methanone]",18 nM
15,"Cc1cc(CC2CCC3(CC2)CN(C(=O)[C@H]2C[C@@](C)(O)C2)C3)ccc1F [Example 399, (7-(4-Fluoro-3-methylbenzyl)-2-azaspiro[3.5]nonan-2-yl)((1s,3s)-3-hydroxy-3-methylcyclobutyl)methanone]",19 nM
16,"C[C@]1(O)C[C@@H](C(=O)N2CC3(CCC(Cn4ccc5cccnc54)CC3)C2)C1 [Example 400, (7-((1H-Pyrrolo[2,3-b]pyridin-1-yl)methyl)-2-azaspiro[3.5]nonan-2-yl)((1s,3s)-3-hydroxy-3-methylcyclobutyl)methanone]",311 nM
17,"Cn1ccc2ccc(CC3CCC4(CC3)CN(C(=O)[C@H]3C[C@@](C)(O)C3)C4)nc21 [Example 401, ((1s,3s)-3-Hydroxy-3-methylcyclobutyl)(7-((1-methyl-1H-pyrrolo[2,3-b]pyridin-6-yl)methyl)-2-azaspiro[3.5]nonan-2-yl)methanone]",66 nM
18,"Cn1ncc2ccc(CC3CCC4(CC3)CN(C(=O)[C@H]3C[C@@](C)(O)C3)C4)cc21 [Example 402, ((1s,3s)-3-Hydroxy-3-methylcyclobutyl)(7-((1-methyl-1H-indazol-6-yl)methyl)-2-azaspiro[3.5]nonan-2-yl)methanone]",185 nM
19,"Cn1ncc2ccc(CC3CCC4(CC3)CN(C(=O)[C@H]3C[C@@](C)(O)C3)C4)nc21 [Example 403, ((1s,3s)-3-Hydroxy-3-methylcyclobutyl)(7-((1-methyl-1H-pyrazolo[3,4-b]pyridin-6-yl)methyl)-2-azaspiro[3.5]nonan-2-yl)methanone]",449 nM
20,"Cc1ccc(OC2CCC3(CC2)CN(C(=O)[C@H]2C[C@@](C)(O)C2)C3)cc1 [Example 404, ((1s,3s)-3-Hydroxy-3-methylcyclobutyl)(7-(p-tolyloxy)-2-azaspiro[3.5]nonan-2-yl)methanone]",53 nM
21,"Cc1ccc(OC2CCC3(CC2)CN(C(=O)[C@H]2C[C@@](C)(O)C2)C3)cc1C [Example 405, (7-(3,4-Dimethylphenoxy)-2-azaspiro[3.5]nonan-2-yl)((1s,3s)-3-hydroxy-3-methylcyclobutyl)methanone]",32 nM
22,"Cc1cccc(OC2CCC3(CC2)CN(C(=O)[C@H]2C[C@@](C)(O)C2)C3)c1C [Example 406, (7-(2,3-Dimethylphenoxy)-2-azaspiro[3.5]nonan-2-yl)((1s,3s)-3-hydroxy-3-methylcyclobutyl)methanone]",20 nM
23,"COc1cc(C)cc(OC2CCC3(CC2)CN(C(=O)[C@H]2C[C@@](C)(O)C2)C3)c1 [Example 407, ((1s,3s)-3-Hydroxy-3-methylcyclobutyl)(7-(3-methoxy-5-methylphenoxy)-2-azaspiro[3.5]nonan-2-yl)methanone]",143 nM
24,"COc1cc(OC2CCC3(CC2)CN(C(=O)[C@H]2C[C@@](C)(O)C2)C3)ccc1C [Example 408, ((1s,3s)-3-Hydroxy-3-methylcyclobutyl)(7-(3-methoxy-4-methylphenoxy)-2-azaspiro[3.5]nonan-2-yl)methanone]",33 nM
25,"COc1cccc(OC2CCC3(CC2)CN(C(=O)[C@H]2C[C@@](C)(O)C2)C3)c1C [Example 409, ((1s,3s)-3-Hydroxy-3-methylcyclobutyl)(7-(3-methoxy-2-methylphenoxy)-2-azaspiro[3.5]nonan-2-yl)methanone]",42 nM
